According to US20070032545A1, “Antibiotic fki-1778 and process for producing the same” (priority 2004, published 2007):

How the values were obtained:
[1] = test system: human leukemia cell strain Jurkat cell; assay: Cell cycle G1 phase terminating activity, DNA content by flow cytometer; format: cell-based; settings: Jurkat cells, 5 μg added to 200 μl medium, 24 hours; for G2/M phase: No addition 22.3; for G1 phase: No addition 53.2
Method: Further, a terminating activity of antibiotic FKI-1778 of the present invention against cell cycle G1 phase in cancer cells is explained as follows. Using 96-well microplate (Corning Corp., the U.S.), human leukemia cell strain Jurkat cell, 5×10^5 cells/well, was inoculated into RPMI 1640 medium (IWAKI Corp., Japan) 200 μl containing a mixture of 10% fetal bovine serum and 1% penicillin (10,000 units/ml)—streptomycin (10 mg/ml) (Invitrogen Inc., the U.S.) and cultured. Antibiotic FKI-1778, 5 μg, was added thereto, and the mixture was incubated at 37° C. for 24 hours under 5% CO2 atmosphere, and the culture supernatant was discarded. Cells were suspended in 0.1% aqueous sodium citrate solution (200 μl) containing 0.002% ribonuclease A (Sigma Corp., the U.S.), 0.005% propidium iodide (Sigma Corp., the U.S.) and 0.3 ml/100 ml IGEPAL-CA-630 (Sigma Corp., the U.S.). After the cell suspension was allowed to stand for 2 hours or more, DNA contents in 10,000 cells were measured by using flow cytometer (FACS Calibur, Becton, Dickinson and Company, the U.S.), then DNA contents of cells in G1 phase, S phase and G2/M phase were measured by using software, Cell Quest (Becton, Dickinson and Company, the U.S.).

[2] = test system: various microorganisms; assay: Growth inhibitory activity against various microorganisms (summary of Table 2); format: cell-based; settings: result in words
Description: Next, diameters of inhibition ring of antibiotic FKI-1778A, antibiotic FKI-1778B, antibiotic FKI-1778C and antibiotic FKI-1778D against various microorganisms on the nutrient agar medium are shown in Table 2.

[3] = test system: nauplius larva of Artemia salina; assay: Anti-arthropod activity on nauplius larva in 96-well microplate; format: in vivo; settings: observed microscopically after 2 days
Method: Next, anti-arthropod activities of antibiotic FKI-1778 10 of the present invention are described hereinbelow. Methanol solution of each antibiotic FKI-1778 was placed in the microplate (96 wells) (Corning Corp., the U.S.). […] The buffer solution 50 μl containing several numbers of nauplius larva of Artemia salina, Arthropod, which was incubated in the buffer solution (Tris 20 mM, sodium chloride 440 mM, magnesium chloride 23 mM, sodium carbonate 1.9 mM, magnesium sulfate 53 mM and calcium chloride 10 mM), was added to each well, and the condition thereof was observed microscopically after 2 days.

Compound | G2/M phase [1] [%] | G1 phase [1] [%] | growth inhibitory activities against various microorganisms [2] | Anti-arthropod activity [3] [µg/mL]
C=C(C)C(O)CCC1(C)C(OC(C)=O)CCC2(C)C(Cc3c(O)c(C)c(C)oc3=O)C(=C)CCC12 (stereo not shown) [FKI-1778C] | 13.0 | 64.2 | no growth inhibitory activities | >200
C=C1CCC2C(C)(CC/C=C(/C)CO)C(OC(C)=O)CCC2(C)C1Cc1c(O)c(C)c(C)oc1=O (stereo not shown) [FKI-1778D] | 9.9 | 63.9 | no growth inhibitory activities | 100
C=C1CCC2C(C)(CC/C=C(\C)C(=O)O)C(OC(C)=O)CCC2(C)C1Cc1c(O)c(C)c(C)oc1=O (stereo not shown) [FKI-1778A] | 12.8 | 62.4 | no growth inhibitory activities | >200
C=C1CCC2C(C)(CC/C=C(\C)CO)C(OC(C)=O)CCC2(C)C1Cc1c(O)c(C)c(C)oc1=O (stereo not shown) [FKI-1778B] | 12.0 | 55.0 | no growth inhibitory activities | 100
